The target in the test is Serotonin 5HT7 receptors (Homo sapiens (Human), UniProt P34969). The experiment in a line: Radiolabel Binding Studies for Serotonin 5HT7 receptors. Particulars: read-out: 5-HT7 % inhib @ 10 uM.
Chain of Serotonin 5HT7 receptors (P34969 whole entry): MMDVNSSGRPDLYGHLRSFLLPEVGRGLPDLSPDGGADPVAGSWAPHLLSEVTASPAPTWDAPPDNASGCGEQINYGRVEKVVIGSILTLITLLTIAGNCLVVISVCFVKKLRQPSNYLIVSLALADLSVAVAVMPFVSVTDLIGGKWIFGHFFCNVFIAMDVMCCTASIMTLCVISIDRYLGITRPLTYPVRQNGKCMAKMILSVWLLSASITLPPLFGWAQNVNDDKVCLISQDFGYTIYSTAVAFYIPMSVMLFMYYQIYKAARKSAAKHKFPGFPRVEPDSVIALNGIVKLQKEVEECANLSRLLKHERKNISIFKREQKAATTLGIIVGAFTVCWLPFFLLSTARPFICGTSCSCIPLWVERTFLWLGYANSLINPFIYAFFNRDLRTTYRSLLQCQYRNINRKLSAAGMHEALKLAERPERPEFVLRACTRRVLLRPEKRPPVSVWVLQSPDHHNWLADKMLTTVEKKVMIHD

Description: Radiolabel Binding Studies for Serotonin 5HT7 Receptors, Method 1:
Eleven dilutions (5× assay concentration) of the compound of the disclosure and chlorpromazine are prepared in the Assay Buffer by serial dilution to yield final corresponding assay concentrations ranging from 10 pM to 10 μM.
A stock concentration of 5 nM [^3H]LSD (lysergic acid diethyl amide) is prepared in 50 mM Tris-HCl, 10 mM MgCl2, 1 mM EDTA, pH 7.4 (Assay Buffer). Aliquots (50 μl) of radioligand are dispensed into the wells of a 96-well plate containing 100 μl of Assay Buffer. Duplicate 50-μl aliquots of the compound of the disclosure test and chlorpromazine positive control reference compound serial dilutions are added.
Membrane fractions of cells expressing recombinant 5HT7 receptors (50 μL) are dispensed into each well. […]
The 250-μl reactions are incubated at room temperature for 1.5 hours, then harvested by rapid filtration onto 0.3% polyethyleneimine-treated, 96-well filter mats using a 96-well Filtermate harvester. […] The filter mats are dried, then scintillant is added to the filters and the radioactivity retained on the filters is counted in a Microbeta scintillation counter. […]

As to `CC1(C)CC(CCN2CCN(c3ccccc3C#N)CC2)OC1=O` (stereo not shown) [Entry 19], the inhibition at 10 µM was 85.7%.

The values above are taken from patent US10287274B2, “5-hydroxytryptamine receptor 7 activity modulators and their method of use” (TEMPLE UNIVERSITY OF THE COMMONWEALTH SYSTEM OF HIGHER …, priority 2013, dated 2019).
